According to patent US12065436B2, “Cardiac sarcomere inhibitors” (Cytokinetics, Inc., priority 2018, dated 2024):
Read-outs that look alike come from different tables or passages of the source.

Experiments:
[1] = system: rat cardiac contractility (left ventricle fractional shortening); test: Echocardiography of acute effect on rat cardiac contractility, continuous IV infusion; assay type: in vivo, Sprague Dawley rats; conditions: plasma concentration at which fractional shortening is 50% of pre-dose baseline, estimated, read-out: IC50 (Mean ± S.D.)
Protocol: (§1) Assessment of in vivo cardiac function by echocardiography was performed in male Sprague Dawley rats under isoflurane (1-3%) anesthesia. 2-D M-mode images of the left ventricle were acquired in the parasternal long-axis view before, during, and after administration of compounds by continuous IV infusion or oral gavage. In vivo fractional shortening was determined by M-mode image analysis with the following calculation: ((End diastolic diameter−end systolic diameter)/end diastolic diameter×100). For continuous IV infusion experiments, three pre-dose baseline M-mode images were taken at 1 minute intervals prior to infusion of compound. Compounds were formulated in 50% Propylene Glycol (PG): 16% Captisol: 10% dimethylacetamide (DMA) and delivered via a jugular vein catheter at the rate of 1 mL/kg/h. During infusion, M-mode images were taken at 5 minute intervals. The infusion stopped when fractional shortening reached up to a 60% reduction from baseline. Blood samples were taken to determine the plasma concentration of the compounds. Data was reported as an estimated IC50 value, which is the concentration at which fractional shortening is 50% of the pre-dose baseline contractility.

[2] = target: bovine cardiac myofibrils (full-length cardiac myosin ATPase in the native sarcomere) (Bos taurus (Bovine), UniProt Q9BE39); test: Skinned bovine cardiac myofibril ATPase assay (PK/LDH-coupled); assay type: biochemical; conditions: Ca2+ activating to 75% of maximal rate; for CDMF75 IC15: concentration giving 15% inhibition; for IC50: read-out: CDMF75 IC50
bovine cardiac myofibrils (full-length cardiac myosin ATPase in the native sarcomere), sequence (Q9BE39 whole entry): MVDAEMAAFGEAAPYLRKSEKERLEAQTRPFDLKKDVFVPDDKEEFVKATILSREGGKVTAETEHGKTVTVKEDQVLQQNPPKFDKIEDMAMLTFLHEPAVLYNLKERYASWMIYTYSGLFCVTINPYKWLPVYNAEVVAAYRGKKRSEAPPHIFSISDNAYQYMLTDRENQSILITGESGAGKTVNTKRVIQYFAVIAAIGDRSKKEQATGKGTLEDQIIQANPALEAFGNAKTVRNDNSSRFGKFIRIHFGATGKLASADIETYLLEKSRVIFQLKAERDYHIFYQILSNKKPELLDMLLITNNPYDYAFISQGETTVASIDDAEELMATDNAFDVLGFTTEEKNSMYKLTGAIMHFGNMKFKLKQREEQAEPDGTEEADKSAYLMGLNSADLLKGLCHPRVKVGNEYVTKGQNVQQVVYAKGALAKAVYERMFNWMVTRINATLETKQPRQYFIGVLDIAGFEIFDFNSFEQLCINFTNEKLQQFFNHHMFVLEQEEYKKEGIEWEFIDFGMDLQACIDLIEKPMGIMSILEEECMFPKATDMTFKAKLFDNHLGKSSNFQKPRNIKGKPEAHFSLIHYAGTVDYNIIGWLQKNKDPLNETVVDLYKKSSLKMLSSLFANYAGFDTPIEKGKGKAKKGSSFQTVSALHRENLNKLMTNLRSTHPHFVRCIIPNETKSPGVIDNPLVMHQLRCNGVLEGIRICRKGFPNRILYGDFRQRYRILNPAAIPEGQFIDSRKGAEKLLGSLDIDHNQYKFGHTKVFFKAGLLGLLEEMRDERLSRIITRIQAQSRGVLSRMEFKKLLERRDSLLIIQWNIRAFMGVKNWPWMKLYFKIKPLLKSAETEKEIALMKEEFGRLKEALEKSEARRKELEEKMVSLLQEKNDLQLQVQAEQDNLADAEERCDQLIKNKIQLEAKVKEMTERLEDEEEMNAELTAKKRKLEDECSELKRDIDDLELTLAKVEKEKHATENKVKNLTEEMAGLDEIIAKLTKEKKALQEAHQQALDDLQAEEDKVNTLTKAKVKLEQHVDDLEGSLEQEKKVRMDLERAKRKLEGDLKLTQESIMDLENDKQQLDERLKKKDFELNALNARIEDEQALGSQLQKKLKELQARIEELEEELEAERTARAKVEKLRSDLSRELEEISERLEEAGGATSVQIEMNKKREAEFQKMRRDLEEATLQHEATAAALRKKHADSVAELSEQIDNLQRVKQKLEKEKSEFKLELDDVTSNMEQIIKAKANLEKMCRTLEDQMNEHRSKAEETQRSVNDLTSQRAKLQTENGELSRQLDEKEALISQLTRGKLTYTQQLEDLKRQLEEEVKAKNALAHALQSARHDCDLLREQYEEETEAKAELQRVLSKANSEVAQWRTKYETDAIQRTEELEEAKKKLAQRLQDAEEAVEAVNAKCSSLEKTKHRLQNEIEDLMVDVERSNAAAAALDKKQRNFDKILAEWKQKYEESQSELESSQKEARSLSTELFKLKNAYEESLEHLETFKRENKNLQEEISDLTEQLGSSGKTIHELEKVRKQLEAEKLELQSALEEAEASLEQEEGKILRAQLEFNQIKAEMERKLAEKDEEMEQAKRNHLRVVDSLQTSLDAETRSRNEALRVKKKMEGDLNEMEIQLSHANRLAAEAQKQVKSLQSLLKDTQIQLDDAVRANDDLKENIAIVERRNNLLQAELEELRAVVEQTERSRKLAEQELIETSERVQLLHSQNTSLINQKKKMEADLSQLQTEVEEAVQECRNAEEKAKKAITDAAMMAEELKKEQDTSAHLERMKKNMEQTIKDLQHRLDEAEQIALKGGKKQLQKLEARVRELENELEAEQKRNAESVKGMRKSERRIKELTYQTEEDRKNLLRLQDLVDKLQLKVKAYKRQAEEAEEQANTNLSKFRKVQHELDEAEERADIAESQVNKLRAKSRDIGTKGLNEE
bovine cardiac myofibrils (full-length cardiac myosin ATPase in the native sarcomere), sequence (P85100 whole entry partner): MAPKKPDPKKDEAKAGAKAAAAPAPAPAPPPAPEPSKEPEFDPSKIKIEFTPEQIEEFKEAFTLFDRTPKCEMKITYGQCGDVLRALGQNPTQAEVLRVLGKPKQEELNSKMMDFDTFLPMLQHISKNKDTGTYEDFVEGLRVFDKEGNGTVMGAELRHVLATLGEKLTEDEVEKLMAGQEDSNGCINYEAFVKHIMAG
bovine cardiac myofibrils (full-length cardiac myosin ATPase in the native sarcomere), sequence (Q3SZE5 whole entry partner): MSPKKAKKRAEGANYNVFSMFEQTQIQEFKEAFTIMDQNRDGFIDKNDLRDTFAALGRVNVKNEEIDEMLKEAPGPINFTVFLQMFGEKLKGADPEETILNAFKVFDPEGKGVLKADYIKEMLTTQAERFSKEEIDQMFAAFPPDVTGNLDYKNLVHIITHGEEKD
Summary of the method: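 Inhibition of steady-state ATPase read at 340 nm through a PK/LDH-coupled NADH system (0.5 mM NADH, 1.5 mM PEP). Detergent-skinned bovine cardiac myofibrils, 1 mg/mL, were tested at pH 6.8 in PIPES/MgCl2 with 50 μM ATP and calcium adjusted to give pCa50 or pCa75 activation.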

[3] = system: rat cardiac contractility (left ventricle fractional shortening); test: Echocardiography of acute effect on rat cardiac contractility, oral gavage; assay type: in vivo, Sprague Dawley rats; conditions: for inhibition in vivo at 2 mg/kg / IC50 / inhibition in vivo at 6 mg/kg: Rattus norvegicus; for inhibition in vivo at 2 mg/kg / inhibition in vivo at 6 mg/kg: oral gavage; for IC50 / IC10: oral dosing, estimated; for IC50: plasma concentration at which fractional shortening is 50% of pre-dose baseline; for IC10: plasma concentration at which
Protocol: as §1
For oral dosing studies, three pre-dose baseline M-Mode images were taken at 1 minute intervals prior to compound administration. Compounds were formulated in a 0.5% hydroxypropyl methylcellulose 2910 (HPMC 2910): 0.1% Tween 80 suspension and delivered as a single dose (5 mL/kg) by oral gavage. Rats were lightly anesthetized for M-Mode echocardiography measurements at select time points over a 24 hour period. Different dose levels were evaluated for each compound. The compound effect on cardiac fractional shortening at the highest dose evaluated is presented in Table D as a percent reduction of baseline fractional shortening (=100%).
Concurrent with echocardiography measurements, blood samples were taken to determine the corresponding compound plasma concentration.

[4] = 1 h, 1-2 h post dose, read-out: FS (% reduction from baseline) at 1-2 h post dose (Mean ± S.D.)
[5] = 4 h post dose, read-out: FS (% reduction from baseline) at 4 h post dose (Mean ± S.D.)

Row | IC50 ([1]; Rattus norvegicus) [µM] | CDMF75 IC15 [2] [µM] | IC50 [2] [µM] | IC50 [3] [µM] | IC50 [1] [µM] | Compound | inhibition in vivo at 2 mg/kg [3, 4] [%] | inhibition in vivo at 2 mg/kg [3, 5] [%] | IC10 [3] [µM] | inhibition in vivo at 6 mg/kg [3, 4] [%] | inhibition in vivo at 6 mg/kg [3, 5] [%]
1 | 1.7 ± 0.08 | 0.3 | 0.8 | 1.3 |  | CCc1cc(-c2ccc3c(c2)CC[C@H]3NC(=O)c2nnn(C)n2)no1 [Compound 253, (R)—N-(5-(5-ethylisoxazol-3-yl)-2,3-dihydro-1H-inden-1-yl)-2-methyl-2H-tetrazole-5-carboxamide] |  |  | 0.3 | 56 ± 9 | 33 ± 7
2 | 1.7 ± 0.06 | 0.2 | 0.7 |  |  | CCc1nc(-c2ccc3c(c2)CC[C@H]3NC(=O)OC)no1 [Compound 304, methyl (R)-(5-(5-ethyl-1,2,4-oxadiazol-3-yl)-2,3-dihydro-1H-inden-1-yl)carbamate] |  |  |  |  | 
3 | 4.6 ± 0.17 | 0.6 | 2.2 |  |  | CCc1cc(-c2ccc3c(c2)OC[C@H]3NC(=O)c2nnn(C)n2)no1 [Compound 365, (S)-N-(6-(5-ethylisoxazol-3-yl)-2,3-dihydrobenzofuran-3-yl)-2-methyl-2H-tetrazole-5-carboxamide] |  |  |  |  | 
4 | 2.4 ± 0.08 | 0.5 | 1.3 | 1.6 |  | CCc1nc(-c2ccc3c(c2)CC[C@H]3NC(=O)c2ccnc(C)c2)no1 [Compound 387, (R)-N-(5-(5-ethyl-1,2,4-oxadiazol-3-yl)-2,3-dihydro-1H-inden-1-yl)-2-methylisonicotinamide] |  |  | 0.4 | 59 ± 24 | 50 ± 18
5 | 5.4 ± 0.1 | 0.9 | 2.8 |  |  | Cc1ncc(C(=O)N[C@@H]2CCc3cc(-c4noc(C5CC5)n4)ccc32)o1 [Compound 388, (R)-N-(5-(5-cyclopropyl-1,2,4-oxadiazol-3-yl)-2,3-dihydro-1H-inden-1-yl)-2-methyloxazole-5-carboxamide] |  |  |  |  | 
6 | 2.1 ± 0.05 | 0.4 | 1.4 |  |  | Cc1n[nH]cc1C(=O)N[C@@H]1CCc2cc(-c3noc(C4CC4)n3)ccc21 [Compound 420, (R)-N-(5-(5-cyclopropyl-1,2,4-oxadiazol-3-yl)-2,3-dihydro-1H-inden-1-yl)-3-methyl-1H-pyrazole-4-carboxamide] |  |  |  |  | 
7 | 4.3 ± 0.11 | 0.3 | 0.9 |  |  | CCc1cc(-c2ccc3c(c2)OC[C@H]3NC(=O)c2cn[nH]c2C)no1 [Compound 433, (S)—N-(6-(5-ethylisoxazol-3-yl)-2,3-dihydrobenzofuran-3-yl)-5-methyl-1H-pyrazole-4-carboxamide] |  |  |  |  | 
8 | 9.3 ± 0.15 | 0.7 | 2.4 |  |  | Cc1cc(-c2ccc3c(c2)OC[C@H]3NC(=O)c2cn[nH]c2C)no1 [Compound 434, (S)-5-methyl-N-(6-(5-methylisoxazol-3-yl)-2,3-dihydrobenzofuran-3-yl)-1H-pyrazole-4-carboxamide] |  |  |  |  | 
9 |  | 0.7 | 3.3 |  | 10.9 ± 0.37 | (R)—N-(7-(5-ethyl-1,2,4-oxadiazol-3-yl)chroman-4-yl)-1-methyl-1H-pyrazole-5-carboxamide [Compound 538] |  |  |  |  | 

Second part, the compound before the results:

Row | Compound | IC50 ([1]; Rattus norvegicus) [µM] | CDMF75 IC15 [2] [µM] | IC50 [2] [µM] | IC50 [3] [µM] | IC50 [1] [µM] | inhibition in vivo at 2 mg/kg [3, 4] [%] | inhibition in vivo at 2 mg/kg [3, 5] [%] | IC10 [3] [µM] | inhibition in vivo at 6 mg/kg [3, 4] [%] | inhibition in vivo at 6 mg/kg [3, 5] [%]
10 | COCc1nc(-c2ccc3c(c2)CC[C@H]3NC(=O)c2nnn(C)n2)no1 [Compound 144, (R)-N-(5-(5-(methoxymethyl)-1,2,4-oxadiazol-3-yl)-2,3-dihydro-1H-inden-1-yl)-2-methyl-2H-tetrazole-5-carboxamide] | 3.4 ± 0.12 | 0.6 | 2.3 |  |  |  |  |  |  | 
11 | Cc1nc(-c2ccc3c(c2)OC[C@H]3NC(=O)c2cn(C)nc2C)no1 [Compound 158, (S)-1,3-dimethyl-N-(6-(5-methyl-1,2,4-oxadiazol-3-yl)-2,3-dihydrobenzofuran-3-yl)-1H-pyrazole-4-carboxamide] | 1.1 ± 0.03 | 0.7 | 2.8 |  |  |  |  |  |  | 
12 | CCc1nc(-c2ccc3c(c2)CC[C@H]3NC(=O)c2nnn(C)n2)no1 [Compound 183, (R)—N-(5-(5-ethyl-1,2,4-oxadiazol-3-yl)-2,3-dihydro-1H-inden-1-yl)-2-methyl-2H-tetrazole-5-carboxamide] | 1.2 ± 0.02 | 0.3 | 0.9 | 0.9 |  | 42 ± 16 | 15 ± 13 | 0.2 |  | 
13 | Cc1nc(-c2ccc3c(c2)OC[C@H]3NC(=O)c2cnn(C)c2)no1 [Compound 211, (S)-1-methyl-N-(6-(5-methyl-1,2,4-oxadiazol-3-yl)-2,3-dihydrobenzofuran-3-yl)-1H-pyrazole-4-carboxamide] | 5.4 ± 0.25 | 0.8 | 2.8 |  |  |  |  |  |  | 
14 | Cn1nccc1C(=O)N[C@@H]1COc2cc(-c3noc(C4CC4)n3)ccc21 [Compound 222, (S)—N-(6-(5-cyclopropyl-1,2,4-oxadiazol-3-yl)-2,3-dihydrobenzofuran-3-yl)-1-methyl-1H-pyrazole-5-carboxamide] | 1.1 ± 0.03 | 0.3 | 1 |  |  |  |  |  |  | 
15 | Cn1cc(C(=O)N[C@@H]2COc3cc(-c4noc(C5CC5)n4)ccc32)cn1 [Compound 236, (S)—N-(6-(5-cyclopropyl-1,2,4-oxadiazol-3-yl)-2,3-dihydrobenzofuran-3-yl)-1-methyl-1H-pyrazole-4-carboxamide] | 11.4 ± 0.6 | 0.5 | 1.8 |  |  |  |  |  |  | 
16 | CCc1nc(-c2ccc3c(c2)OC[C@H]3NC(=O)c2cnn(C)c2)no1 [Compound 238, (S)—N-(6-(5-ethyl-1,2,4-oxadiazol-3-yl)-2,3-dihydrobenzofuran-3-yl)-1-methyl-1H-pyrazole-4-carboxamide] | 5.7 ± 0.31 | 0.3 | 1 | 4.9 |  | 52 ± 10 | 59 ± 6 | 0.9 |  | 
